In patent US5928931A, “Isolation, purification and cloning of retinol dehydratase” (Cornell Research Foundation, Inc., priority 1997, dated 1999):
pKd: −log10 of the molar value. Entries after “also recorded” stand apart in the source; their conditions may differ. Where two headings read alike, the source gives them in different places. One block for each compound: values may come before it.

Legend:
NIH 3T3 cells = assay: Activation of resting serum-starved NIH 3T3 cells ([3H]thymidine incorporation); format: cell-based; details: for time from the start of activation to entry of the S phase: 5% fetal calf serum; for activation of growth arrested cells (thymidine incorporation over 24 hours): cells deprived of serum for 3 or 4 days; for concentrations that activate resting 3T3 cells (dose-response): four day serum-starved cells, FIG. 6B; for entry of treated cells into the S phase: data not shown
Protocol: FIGS. 6A and 6B show the activation of resting NIH 3T3 cells. In FIG. 6(a), one to four day serum-starved cells activated by serum, retinol, 14-HRR, and the peptide growth factors epidermal growth factor ("EGF") and platelet derived growth factor ("PDGF") are shown. […] NIH 3T3 cells were grown to confluence in Dulbecco's minimal essential medium ("DMEM") containing 10% fetal calf serum in 96-well microliter plates. All media were supplemented with 2 mM glutamine and 100 U/ml of penicillin/streptomycin. Cells were washed once with phosphate-buffered saline solution and incubated for one to four days in 200 μl/well of DMEM media/0.1% fetal calf serum ("starvation media"). On the indicated day, starvation media was replaced with 200 μl/well of insulin, transferrin, linoleic acid, bovine serum albumin ("ITLB") media, with or without fetal calf serum, retinoids, or peptide growth factors at the indicated concentrations. ITLB media is RPMI media (Gibco BRL, Grand Island, N.Y.) containing […] bovine serum albumin (1.2 mg/ml), linoleic acid (10^-6 M), bovine insulin (5 μg/ml), and transferrin (5 μg/ml). [^3 H]thymidine (1.2 μCi per well) was added at the beginning of the experiment, and the thymidine incorporation was determined after 24 h. The data represent the mean of triplicate measurements and standard deviations ("SD") were ≤17%. Recombinant PDGF (B/B) and EGF were purchased from Sigma Chemical Company or Boehringer Mannheim Corporation. Anhydroretinol was synthesized by acid catalyzed dehydration of all-trans-retinol. Embree, J. Biol. Chem. 128:187-98 (1939) and Derguini, et al., Angew. Chem. Int. Ed. Engl. 33:1839-41 (1994), which are hereby incorporated by reference. All-trans-14-hydroxy-4,14-retro-retinol was synthesized as described. Derguini, et al., J. Biochem. 33:623-28 (1994), which is hereby incorporated by reference.
Cells starved for 4 days in DMEM/0.1% fetal calf serum were activated with 5% fetal calf serum, 2 μM retinol, or 2 μM 14-HRR, and the cumulative thymidine incorporation was determined at the indicated time points. Δcpm corresponds to the increase in [^3 H]thymidine incorporation in the two hour period before the time point shown. This method is described in FIG. 6. The data in FIG. 7 represents the mean of quadruplicate measurements and SDs were ≤15%.
Cells starved for 4 days in DMEM/0.1% fetal calf serum were activated in 100 μl/well ITLB medium. At the indicated time points, anhydroretinol was added in 100 μl ITLB medium. This method is described in FIG. 6. The data in FIG. 8 represents the mean of quadruplicate measurements and SDs were ≤20%.
Cells starved for 4 days in DMEM/0.1% fetal calf serum were activated with 5% fetal calf serum, 2 μM retinol, or 2 μM 14-HRR. At the time points, 10^-5 M anhydroretinol was added. The cumulative [^3 H]thymidine incorporation was determined after 24 hours. […] The method is described in FIG. 6. The data in FIG. 9 represents the mean of triplicate measurements and SDs were ≤20%.
Confluent NIH 3T3 cells were starved for 1 to 4 days in medium containing 0.1% serum. Then, these starved cells were treated with serum, PDGF, EGF, retinol, or 14-HRR. Activation was quantitated by measuring the [^3 H] thymidine incorporated into newly synthesized DNA during the subsequent 24 hours (FIG. 6A). After a single day of serum starvation, the cells were not yet arrested, and the control cells incorporated the same amount of thymidine as the treated cells. After 2 days of serum deprivation, untreated cells incorporated slightly less thymidine, while cells treated with serum, peptide growth factors and retinoids maintained the original level of thymidine incorporation. In contrast, cells deprived of serum for 3 or 4 days were fully growth arrested; untreated cells incorporated little or no thymidine. […] All subsequent activation experiments were conducted using 4 day starved NIH 3T3 cells.

retinol dehydratase [1] = target: T1, retinol dehydratase (Spodoptera frugiperda, UniProt Q26490); assay: Retinol dehydratase assay ([3H]-retinol to [3H]-AR, HPLC radiomatic detection); kinetic studies; format: biochemical
T1 sequence (Q26490 1-351): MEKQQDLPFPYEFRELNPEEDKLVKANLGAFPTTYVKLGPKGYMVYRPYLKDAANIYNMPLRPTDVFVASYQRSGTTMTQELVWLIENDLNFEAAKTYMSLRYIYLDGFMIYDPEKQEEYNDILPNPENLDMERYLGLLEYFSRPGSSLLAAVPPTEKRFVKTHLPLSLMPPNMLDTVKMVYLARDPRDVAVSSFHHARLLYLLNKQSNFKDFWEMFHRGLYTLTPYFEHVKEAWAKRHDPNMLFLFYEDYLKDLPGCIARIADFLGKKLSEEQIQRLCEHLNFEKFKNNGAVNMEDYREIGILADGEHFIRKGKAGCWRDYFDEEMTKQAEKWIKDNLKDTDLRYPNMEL
Protocol: 20-50 μl aliquots of supernatant/column fractions were incubated with 1 μCi of [^3 H]-retinol and 20 μl of high speed supernatant from sonicated Sf-9 cells in 200 μl assay buffer (20 mM Tris.Cl pH 7.5, 150 mM NaCl, I mM MgCI2) for 15-60 minutes at 24° C. […] Samples were delipidated and [^3 H]-AR production quantified by a liquid scintillation radiomatic detector in series with HPLC gradient elution (20 mM Tris pH 7.4/methanol/chloroform) from a C-18 Reverse Phase 201TP54 column (Vydac, Separations Group, Hesperia, Calif.) as described by McClean et al., Clin. Chem., 28:693-96 (1982) and Derguini et al., Angew. Che. Int. Ed. Engl., 33:1839-41 (1994), which are hereby incorporated by reference.
Kinetic studies were performed with native retinol dehydratase (0.1 μg/assay) and ^3 H-retinol in the presence of constant substrate carrier protein concentrations, either delipidated BSA or recombinant cellular retinol binding protein ("CRBP"). The initial rate of AR synthesis at different substrate concentrations was determined by radiomatic detection of ^3 H-AR after HPLC separation.
Carrier protein for retinol (delipidated bovine serum albumin or recombinant human CRBP) was added to reduce nonspecific binding and micelle formation.

B lymphocyte = details: Buck et al. 1993; cited from earlier work
resting T lymphocytes = details: Buck et al. 1993; cited from earlier work
[2] = test system: lymphocyte and HL-60 cell; details: Eppinger et al. 1993, Buck et al. 1993; cited from earlier work
Sf-21 cells = format: cell-based, Spodoptera frugiperda
Protocol: 10^7 Spodoplera frugiperda Sf-21 cells or Sf-9 cells were incubated with 1 μCi^3 H-retinol in Grace's insect cell media for 6 hours. Delipidated and radiolabelled retinoid metabolites were analyzed by radiomatic detection after separation by HPLC.
Che. Int. Ed. Engl., 33:1839-41 (1994), which is hereby incorporated by reference.

BSA = BSA (Bos taurus, UniProt P02769); details: published value; read-out: BSA Kd for retinol; cited from earlier work
retinol dehydratase [3] = target: T1, retinol dehydratase; assay: Fluorimetric titration of recombinant retinol dehydratase with retinol (direct binding, no cofactor)
Protocol: Binding was monitored by following the fluorescence enhancement of retinol (excitation--330 nm; emission--480 nm, open circles). The fluorescence contribution of free retinol was determined by titration with retinol in the absence of protein (open squares), analyzed by linear regression analysis (dashed line) and subtracted from the titration data to give the corrected titration binding curve (closed circles). The data were fitted (solid line) using an equation derived from simple binding theory.
Retinol is an efficient fluorophore and its interactions with proteins are often accompanied by a marked increase in its fluorescence. […]
Recombinant retinol dehydratase (lμM) was titrated with retinol from a concentrated solution in ethanol (final ethanol concentration <2.0%). Binding was monitored by following the fluorescence enhancement of retinol (excitation--330 nm; emission--480 nm, open circles). The fluorescence contribution of free retinol was determined by titration with retinol in the absence of protein (FIG. 5B, open squares), analysed by linear regression analysis (FIG. 5B, dashed line) and subtracted from the titration data to give the corrected titration binding curve (FIG. 5B, closed circles). […]

CRBP-1 = target: T2, CRBP-1 (Rattus norvegicus, UniProt P02696); details: published value; read-out: CRBP Kd for retinol; cited from earlier work
T2 sequence (P02696 1-135): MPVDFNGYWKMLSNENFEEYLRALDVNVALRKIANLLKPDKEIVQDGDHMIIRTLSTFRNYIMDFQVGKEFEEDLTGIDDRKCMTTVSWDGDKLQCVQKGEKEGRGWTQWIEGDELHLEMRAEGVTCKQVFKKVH

[4] = 4 day starved cells, 2 μM retinol or 2 μM 14-HRR

Chain of BSA (P02769 25-607): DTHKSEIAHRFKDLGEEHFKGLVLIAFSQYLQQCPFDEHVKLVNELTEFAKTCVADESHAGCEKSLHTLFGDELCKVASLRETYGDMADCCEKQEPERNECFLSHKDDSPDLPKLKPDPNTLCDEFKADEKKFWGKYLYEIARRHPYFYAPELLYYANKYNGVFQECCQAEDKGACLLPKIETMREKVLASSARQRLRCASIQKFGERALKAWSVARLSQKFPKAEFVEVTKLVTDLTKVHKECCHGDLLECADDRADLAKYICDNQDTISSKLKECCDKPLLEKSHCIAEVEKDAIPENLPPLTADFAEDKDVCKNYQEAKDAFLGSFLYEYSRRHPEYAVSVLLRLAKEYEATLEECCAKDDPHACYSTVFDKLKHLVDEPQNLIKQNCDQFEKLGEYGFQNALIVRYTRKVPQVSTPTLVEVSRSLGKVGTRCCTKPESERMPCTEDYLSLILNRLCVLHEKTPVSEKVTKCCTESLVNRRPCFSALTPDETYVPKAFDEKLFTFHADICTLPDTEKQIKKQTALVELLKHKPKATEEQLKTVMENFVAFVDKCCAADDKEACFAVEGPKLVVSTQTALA

Compound: CC1=CCCC(C)(C)C1=C/C=C(C)/C=C/C=C(\C)C(O)CO (stereo not shown) [14-HRR, 14-hydroxy-4,14-retro-retinol]
- time from the start of activation to entry of the S phase (NIH 3T3 cells; [4]): 16 h
- activation of growth arrested cells (thymidine incorporation over 24 hours) (NIH 3T3 cells): activated the cells at least as well as serum
- concentrations that activate resting 3T3 cells (dose-response) (NIH 3T3 cells): submicromolar

Compound: Nc1ncnc2c1ncn2[C@@H]1O[C@H](COP(=O)(O)OS(=O)(=O)O)[C@@H](OP(=O)(O)O)[C@H]1O [PAPS, 3'-phosphoadenosine 5'-phosphosulfate]
- restoration of retinol dehydratase activity (cofactor) (retinol dehydratase [1]; purified recombinant retinol dehydratase, [3H]-retinol assay): necessary and sufficient to restore activity

Compound: Nc1ncnc2c1ncn2[C@@H]1O[C@H](COP(=O)(O)OS(=O)(=O)O)[C@@H](O)[C@H]1O [adenosine 5'-phosphosulfate]
- activity as cofactor in the [3H]-retinol assay (retinol dehydratase [1]; purified recombinant retinol dehydratase, concentration range tested 1-10 μM): not active

- reaction rate (product inhibition) (retinol dehydratase [1]; ratio of 50:1 for anhydroretinol to retinol): halved
Compound: C=C/C(C)=C/C=C/C(C)=C/C=C1/C(C)=CCCC1(C)C [anhydroretinol]
- inhibition of activation by retinol and 14-HRR (NIH 3T3 cells; 3T3 cells): competitively inhibits
- time after activation within which added anhydroretinol prevents activation (NIH 3T3 cells; 10^-5 M anhydroretinol, activation by 5% fetal calf serum, 2 μM retinol or 2 μM 14-HRR): ≤ 90 min
- inhibition of activation by serum (NIH 3T3 cells; 4 day starved cells, FIG. 8): blocks activation by serum in a dose-dependent manner; also recorded: competitively inhibits
- block of activation when added late (NIH 3T3 cells; anhydroretinol added after 2 hours): unable to block activation
- effect on B lymphocyte proliferation (B lymphocyte): blocks
- effect on activation of resting T lymphocytes (resting T lymphocytes): blocks
- effect on retinol and 14-HRR supported lymphocyte and HL-60 cell growth [2]: competitively inhibits

Compound: O=CCCCC=O [glutaraldehyde]
- inhibition of cellular production of AR compared to controls (Sf-21 cells; 2% glutaraldehyde fixation): 90%

Compound: CCCCCCCCCCCCCC(=O)O[C@@H]1[C@@H](C)[C@@]2(O)[C@@H](C=C(CO)C[C@]3(O)C(=O)C(C)=C[C@@H]23)[C@@H]2C(C)(C)[C@]12OC(C)=O [phorbol ester]
- entry of treated cells into the S phase (NIH 3T3 cells): did not enter the S phase
- activation of resting cells (NIH 3T3 cells; ≤1 μM): unable to activate

Compound: CC1=C(/C=C/C(C)=C/C=C/C(C)=C/C(=O)O)C(C)(C)CCC1 [retinoic acid]
- activation of resting cells (NIH 3T3 cells; ≤5 μM): unable to activate

- Vmax (retinol dehydratase [1]; all assays, with carrier protein, n=5): 490±50 pmoles AR min^-1 enzyme
- Vmax (retinol dehydratase [1]; native retinol dehydratase 0.1 μg/assay, 3H-retinol, representative experiment, non-linear regression): 530 pmol/mg/min
- pKd (retinol dehydratase [3]; n=3, read-out: range of equilibrium dissociation constant (Kd)): 7.82 to 8.70
- pKd (retinol dehydratase [3]; recombinant enzyme 0.5-1 μM, no cofactor, to be considered an upper limit, read-out: equilibrium dissociation constant (Kd)): 8.05
Compound: CC1=C(/C=C/C(C)=C/C=C/C(C)=C/CO)C(C)(C)CCC1 [retinol]
- time from the start of activation to entry of the S phase (NIH 3T3 cells; [4]): 16 h
- activation of growth arrested cells (thymidine incorporation over 24 hours) (NIH 3T3 cells): activated the cells at least as well as serum
- concentrations that activate resting 3T3 cells (dose-response) (NIH 3T3 cells): submicromolar
- pKd (BSA): 6.00
- pKd (CRBP-1): 7.92

Compound: [N-]=[N+]=[N-] [sodium azide]
- inhibition of cellular production of AR compared to controls (Sf-21 cells; 0.1% sodium azide treatment): 96%

Compound: Insulin: bovine insulin, 5 μg/ml in ITLB medium
- activation of resting 3T3 cells (NIH 3T3 cells; insulin 5 μg/ml in the defined medium, alone): did not activate

Compound: PDGF
- activation of growth arrested cells (thymidine incorporation over 24 hours) (NIH 3T3 cells): had no effect
- entry of treated cells into the S phase (NIH 3T3 cells): did not enter the S phase
- activation of resting cells (NIH 3T3 cells; ≤1000 ng/ml): unable to activate
